Experimental data taken from US20160045687A1, “NASAL ADMINISTRATION” (OPTINOSE AS, priority 2013, published 2016).
Where a name gives a salt, the structure may show the parent alone. Read-outs that look alike come from different tables or passages of the source.

Tests used:
[1] = Fluticasone bioavailability at higher Breath Powered doses; format: in vivo, human; conditions: 400 ug or 800 ug twice daily as compared to 200 ug daily conventionally
[2] = test system: chronic rhinosinusitis (CRS) with nasal polyps; test: Example #10: 3-month placebo controlled study of fluticasone with Breath Powered liquid device; format: in vivo, human
[3] = test system: post-surgical recalcitrant CRS without polyps; test: Example #11: placebo controlled study of fluticasone with Breath Powered liquid device; format: in vivo, human; conditions: 12 weeks
Description: Using the same drug-device combination product as Example #10, a small placebo controlled study (N=20) was performed in patients with post-surgical recalcitrant CRS without polyps, producing clinically significant improvements on both objective measures and subjective symptoms.

[4] = cited from earlier work
migraine headaches = test: Examples #4/#7: double-blind crossover head-to-head study, Breath Powered sumatriptan vs 100 mg tablet, blinded pooled data; format: in vivo, human; conditions: 16 mg nasal with placebo tablet; scenario inferred from blinded data
Description: The study is a cross-over design where each patient enrolled will treat headaches with each of the treatments. Specifically, patients will treat up to 5 headaches with a treatment and then cross over to treat up to 5 headaches with the other. With each headache, the patient uses the device and takes a tablet, only one of which will be active. From data on over 400 headaches, as yet unblinded, the results obtained at the 30 min timepoint (headache relief 30 minutes after taking medication) for moderate or severe headaches is 54%.
One set of data include blinded head-to-head (H2H) results. They generally show a high response rate In blinded data, i.e., a reduction from severe/moderate migraine or mild or none.

single migraine attack = test: Example #1: headache relief after 16 mg intranasal Breath Powered sumatriptan vs 100 mg oral sumatriptan; format: in vivo, human
From the text: The purpose of this study was to study the onset of headache relief following a dose of sumatriptan. The study population included 436 subjects.
Headache relief is defined as a reduction from moderate (grade 2) or severe (grade 3) to none (grade 0) or mild (grade 1) pain.

[5] = Example #3: sumatriptan PK in nitroglycerin (GTN)-induced migraine vs healthy subjects; conditions: human, in vivo, Breath Powered device
episodic migraine = conditions: continuous carbon dioxide infusion; cited from earlier work
[6] = test system: cultured rat trigeminal ganglion cells; conditions: carbon dioxide treatment of cultures under isohydric conditions; cited from earlier work

SMILES: C[C@@H]1C[C@H]2[C@@H]3C[C@H](F)C4=CC(=O)C=C[C@]4(C)[C@@]3(F)[C@@H](O)C[C@]2(C)[C@@]1(O)C(=O)SCF [fluticasone]
- bioavailability [1]: no significantly greater bioavailability
- tolerability ([2]; 400 μg b.i.d., 3 months): well tolerated
- subjects with complete elimination of the polyps ([2]; 400 μg b.i.d., after 3 months): ~20%
- proportion of subjects with improvement in summed polyp score ([2]; 4 weeks): 22%
- proportion of subjects with improvement in summed polyp score ([2]; 8 weeks): 43%
- proportion of subjects with improvement in summed polyp score ([2]; 12 weeks): 57%
- change in polyp score ([2]; after 12 weeks): −0.98
- summed polyp score ([2]; after 12 weeks, baseline 2.8): 1.8
- endoscopy score for edema (median scores) [3]: −4.0

SMILES: CN(C)CCc1c[nH]c2ccc(C[C@H]3COC(=O)N3)cc12 [zolmitriptan]
- nasal fraction of the total absorption ([4]; conventional nasal spray): approximately 30%

SMILES: CN1C[C@H](C(=O)N[C@]2(C)O[C@@]3(O)[C@@H]4CCCN4C(=O)[C@H](Cc4ccccc4)N3C2=O)C[C@@H]2c3cccc4[nH]cc(c34)C[C@H]21 [DHE, dihydroergotamine mesylate]
- bioavailability ([4]; administered intranasally): ~40%
- bioavailability ([4]; given orally): less than 1%

SMILES: CNS(=O)(=O)Cc1ccc2[nH]cc(CCN(C)C)c2c1 [sumatriptan]
- suggested response rate at 30 minutes (migraine headaches): 70%
- response rate (headache relief) at 30 minutes (single migraine attack; 16 mg of sumatriptan in the Breath Powered device and oral tablet placebo): 67%
- response rate (headache relief) at 30 minutes (single migraine attack; 100 mg of sumatriptan orally with the placebo device): 39%
- bioavailability ([5]; other: intranasal powder, 7.5 mg delivered to the side of the migraine during a GTN attack in migraineurs): 27%
- Cmax ([5]; other: intranasal, 7.5 mg): 11 ng/mL

SMILES: O=C=O [carbon dioxide]
- 2-hour pain free response (episodic migraine): 25.0%
- effect on CGRP secretion [6]: significantly repressed the stimulatory effects of KCI, capsaicin, and nitric oxide on CGRP secretion
